Literature values as cited in US20260284237A1, “RADIOLABELED FAPI COMPLEX, AND PREPARATION METHOD THEREFOR AND USE THEREOF” (BEIJING NORMAL UNIVERSITY, priority 2023, published 2026).

Legend:
[1] = test system: FAP; settings: background statement
[2] = background statement

N#C[C@@H]1CC(F)(F)CN1C(=O)CNC(=O)c1ccnc2ccc(OCCCN3CCN(C(=O)CN4CCN(CC(=O)O)CCN(CC(=O)O)CCN(CC(=O)O)CC4)CC3)cc12 [FAPI-04]
affinity and specificity toward the FAP [1]: favorable affinity and specificity toward the FAP
tumor uptake as radiotherapeutic drug [2]: relatively low tumor uptake
